Test results: patent US8592425B2, “Imidazo[1,2-a]pyridines and imidazo[1,2-b]pyridazines as mark inhibitors” (Merck Sharp & Dohme Corp., priority 2009, dated 2013)
pIC50: −log10 of the molar value. Counter-ions that a name gives are not always drawn.

Key:
[1] = target: recombinant MARK3 enzyme (Homo sapiens (Human), UniProt P27448); experiment: MARK 3 Assay (HTRF, Cdc25C biotinylated peptide substrate); assay type: biochemical; settings: MARK3, 10 μM ATP, 1 μM peptide substrate, 2 hours at 25° C.
Sequence of recombinant MARK3 enzyme (P27448 whole entry, species assumed): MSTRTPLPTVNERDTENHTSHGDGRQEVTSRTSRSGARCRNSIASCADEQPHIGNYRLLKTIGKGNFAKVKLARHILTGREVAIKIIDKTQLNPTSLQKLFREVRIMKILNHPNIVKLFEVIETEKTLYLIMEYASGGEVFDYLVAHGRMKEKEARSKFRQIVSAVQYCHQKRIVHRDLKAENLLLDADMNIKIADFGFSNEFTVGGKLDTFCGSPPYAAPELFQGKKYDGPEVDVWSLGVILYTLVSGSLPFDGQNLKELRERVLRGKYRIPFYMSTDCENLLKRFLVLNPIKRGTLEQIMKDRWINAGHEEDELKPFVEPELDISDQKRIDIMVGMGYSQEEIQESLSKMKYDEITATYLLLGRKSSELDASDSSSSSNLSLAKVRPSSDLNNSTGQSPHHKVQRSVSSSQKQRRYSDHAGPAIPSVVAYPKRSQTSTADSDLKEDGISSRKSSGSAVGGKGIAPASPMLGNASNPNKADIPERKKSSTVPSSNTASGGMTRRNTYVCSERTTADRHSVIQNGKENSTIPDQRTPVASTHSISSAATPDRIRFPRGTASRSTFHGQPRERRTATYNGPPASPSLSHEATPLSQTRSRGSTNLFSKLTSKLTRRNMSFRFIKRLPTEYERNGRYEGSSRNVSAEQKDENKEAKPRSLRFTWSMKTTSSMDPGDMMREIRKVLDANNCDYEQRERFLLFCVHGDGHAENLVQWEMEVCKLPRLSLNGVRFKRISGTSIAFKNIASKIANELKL
Description: MARK3 activity was assayed in vitro using a Cdc25C biotinylated peptide substrate (Cell Signalling Technologies). The phosphopeptide product was quantitated using a Homogenous Time-Resolved Fluorescence (HTRF) assay system (Park et al., 1999, Anal. Biochem. 269:94-104). The reaction mixture contained 50 mM HEPES/Tris-HCl, pH 7.4; […], 5 mM MgCl2, 0.2 mM NaVO4, 5 mM 3-glycerol phosphate, 0.1% Tween-20, 2 mM dithiothreitol, 0.1% BSA, 10 μM ATP, 1 μM peptide substrate, and 10 nM recombinant MARK3 enzyme (University of Dundee) in a final volume of 12 μL. The buffer additionally contained protease inhibitor cocktail (Roche EDTA-free, 1 tab per 50 ml). The kinase reaction was incubated for 2 hours at 25° C., and then terminated with 3 μl Stop/Detection Buffer (50 mM HEPES, pH 7.0, 16.6 mM EDTA, 0.5M KF, 0.1% Tween-20, 0.1% BSA, 2 μg/ml SLX^ent 665 (CISBIO), and 2 μg/mL Eu^3+ cryptate label antibody (CISBIO)). The reaction was allowed to equilibrate overnight at 0° C., and relative fluorescent units were read on an HTRF enabled plate reader (e.g. TECAN GENios Pro).
Inhibitor compounds were assayed in the reaction described above to determine compound IC50s. Aliquots of compound dissolved in DMSO were added to the reaction wells in a third-log dilution series covering a range of 1 nM to 10 μM. Relative phospho substrate formation, read as HTRF fluorescence units, was measured over the range of compound concentrations and a titration curve generated.

[2] = tested on: phosphorylation of Tau at S262 in primary cell culture of rat cortical neurons induced by Okadaic acid; experiment: pTau(S262) Cell Biochemical and Functional Assay; assay type: cell-based; settings: Cortical neurone, Okadaic acid 200 nM, 1.5 hrs, read-out: IC50, inhibition of phosphorylation of Tau at S262
Description: The cell biochemical potency of the below described MARK inhibitors was evaluated by measuring their ability to block the phosphorylation of Tau at S262 in primary cell culture of rat cortical neurons induced by the action of Okadaic acid.
• 1. Store tissue at 4° C. (1-2 days) until ready to use. • 2. When ready to plate, make up 2 mL of enzymatic solution in Hibernate-Ca containing 1× papain. Filter sterile solution with 0.2 μm filter. • 3. Transfer 2 mL of medium from tissue tube into 15 mL falcon tube while not disturbing tissue. Save media. • 4. Add 2 mL enzymatic media (2) to tissue. Incubate for 30′ at 37° C. • 5. Remove enzymatic solution while not disturbing tissue. Add back 1 mL of media from (3). • 6. Using pipettor with sterile plastic tip, triturate ˜10 times until most of the cells are dispersed. • 7. Let undispersed pieces settle by gravity 1 minute. • 8. Transfer dispersed cells (supernatant) into 15 mL falcon tube containing 1 mL media from (3). Gently mix cells by swirling. • 9. Spin cells at 1,100 rpm for 1 minute. Remove supernatant. • 10. Flick tube to loosen cell pellet. Resuspend cells in 5 mL of NB. • 11. Transfer to new 50 mL falcon tube using 40 μm cell strainer. Rinse 15 mL falcon tube with 5 mL media, add to strainer. • 12. Count cells using hemacytometer. • 13. Dilute cells to 7,000 cells/100 μL/well in NB. • 14. Incubate cells at 37° C. with 5% CO2. • a. 4 DIV: Replace ½ volume (50 μL) NB per well. • b. 6 DIV: Neurite Assay. Tissue Culture/Compound Treatment
Primary rat cortical neurons plated @ 6Kcells/well in 384-well black/clear bottom Poly D-Lysine coated BD Falcon Biocoat plates. • Media: Neurobasal+1× B27+2 mM L-Glutamine (+10% FBS) at time of plating
Cells maintained at 37° C. and 5% CO2 for *6 days in culture, w/½ media change every 3-4 days.
Compound treatment: • Prepare first plate: 200× compound in 100% DMSO with subsequent 3 fold serial dilution • Prepare intermediate plate: 1:40 dilution of 200× compound in media (2.5% DMSO) • Add 5× compound to cell in media at 1:5 dilution (0.5% final DMSO) • Incubate for 30 min. at 37° C.
Okadaic Acid (OA) Treatment: • Dilute OA stock (240 μM in 100% DMSO) to 6× final concentration in media (0.5% DMSO) • Add 6× OA to cells at 1:6 dilution (200 nM final). Incubate for 1.5 hrs. at 37° C. Fix and Immunostaining
Fix: 1% PFA, diluted in PBS • Wash 1× with PBS, residual 30 μl/well.
Add 30 μL/well warmed 2% PFA and incubate 30 min. at RT (1% PFA final)
Wash 3× with PBS, 300/well residual […]

| pIC50 [1] | Compound | pIC50 [2] |
| --- | --- | --- |
| 6.85 | CCc1sc(C(=O)N[C@@H]2[C@H](N)CCCC2(F)F)cc1-c1cnc2cc(C(F)(F)F)cnn12 [Example 24, N-[(1R,6R)-6-amino-2,2-difluorocyclohexyl]-5-ethyl-4-[7-(trifluoromethyl)imidazo[1,2-b]pyridazin-3-yl]thiophene-2-carboxamide] |  |
|  | Cc1sc(C(=O)N[C@H]2CCS(=O)(=O)C[C@H]2N)cc1-c1cnc2cccnn12 (relative stereo) [Example 10, N-[cis-3-amino-1,1-dioxidotetrahydro-2H-thiopyran-4-yl]-4-(imidazo[1,2-b]pyridazin-3-yl)-5-methylthiophene-2-carboxamide] | < 5.00 |
|  | Cc1sc(C(=O)N[C@@H]2[C@H](N)CCCC2(F)F)cc1-c1cnc2ccccn12 [Example 15, N-[(1R,6R)-6-amino-2,2-difluorocyclohexyl]-4-(imidazo[1,2-a]pyridin-3-yl)-5-methylthiophene-2-carboxamide] | < 5.00 |
| 6.14 | N[C@H]1CCCC(F)(F)[C@@H]1NC(=O)c1nc(-c2cnc3ccccn23)c(Cl)s1 [Example 29, N-[(1R,6S)-6-Amino-2,2-difluorocyclohexyl]-5-chloro-4-(imidazo[1,2-a]pyridin-3-yl)-1,3-thiazole-2-carboxamide] |  |
|  | Cc1sc(C(=O)NC2CS(=O)(=O)CC[C@H]2N)cc1-c1cnc2cccnn12 (stereo partly drawn) [Example 9] | < 5.00 |
| 7.70 | Cc1sc(C(=O)N[C@@H]2[C@H](N)CCCC2(F)F)cc1-c1cnc2cccnn12 [Example 1, N-[(1R,6R)-6-Amino-2,2-difluorocyclohexyl]-4-(imidazo[1,2-b]pyridazin-3-yl)-5-methylthiophene-2-carboxamide] |  |
| 7.82 | N[C@H]1CCCC(F)(F)[C@@H]1NC(=O)c1cc(-c2cnc3ccccn23)cs1 [Example 14, N-[(1R,6S)-6-amino-2,2-difluorocyclohexyl]-4-(imidazo[1,2-a]pyridin-3-yl)thiophene-2-carboxamide] |  |
| 9.30 | N[C@@H]1CCCC(F)(F)[C@@H]1NC(=O)c1cc(-c2cnc3cc(-c4ccc(F)cc4)cnn23)cs1 [Example 8, (1R,2R)-3,3-difluoro-2-[({4-[7-(4-fluorophenyl)imidazo[1,2-b]pyridazin-3-yl]thiophen-2-yl}carbonyl)amino]cyclohex-anaminium trifluoroacetate] |  |
|  | N[C@@H]1CCCC(F)(F)[C@@H]1NC(=O)c1cc(-c2cnc3cccnn23)c(Cc2ccccc2)s1 [Example 19, N-[(1R,6R)-6-amino-2,2-difluorocyclohexyl]-5-benzyl-4-(imidazo[1,2-b]pyridazin-3-yl)thiophene-2-carboxamide] | < 5.00 |
